Test results: patent US7833795B2, “Assessment of cardiovascular risk using isoprostane biomarkers and COX-2 selective inhibitors” (The Trustees of the University of Pennsylvania, priority 2004, dated 2010)

Columns and labels:
Type in all cases: in vivo, rat
Male Fisher 344 rats [1] = assay: Plasma lipid hydroperoxides (LPO assay kit) after CCl4; conditions: for LOOH (by LPO assay kit): plasma
Description: (§1) Animals and treatment protocol: Male Fisher 344 rats (260-280 g) obtained from Charles River Laboratories (Raleigh, N.C.) were used in all experiments. The animals were housed three to a cage. Autoclaved hardwood bedding was used in solid-bottom polycarbonate cages with filter tops. Animal rooms were maintained at 20-25° C. with 35-70% relative humidity with alternating 12-hour light and dark cycles. The rats had free access to deionized, reverse-osmosis-treated water and received autoclaved NIH 31 rodent chow (Zeigler Bros., Gardners, Pa.) ad libitum. For all experiments, rats were fasted overnight and then administered intraperitoneal injections of carbon tetrachloride in canola oil. Control rats received an equal volume of canola oil. Fasting continued throughout the experiment. Rats were anesthetized with Nembutal (0.1 ml/100 g body weight) and 5 ml blood was removed from the dorsal aorta proximal to its bifurcation into the common iliac arteries.
(§2) Carbon tetrachloride (CCL4) treatment: Animals from each of the three dose groups (Control-canola oil, 120 mg/kg CCl4 i.p. and 1200 mg/kg CCl4 i.p.) were investigated at three time points (2, 7, and 16 hours after CCl4 injection). Indomethacin-pretreated rats were also investigated at the same three time points, and the meclofenamic acid-pretreated rats were investigated at one time point (7 hours). Each group consisted of five rats for each analysis, except the meclofenamic acid pretreatment group which consisted of six rats. Animal treatment, sample preparation, assessment of liver histology and serum enzyme activities are described elsewhere (Kadiiska et al., 2000, Free Radic. Biol. Med. 28: 838-845; Jackson, 1989, J. Pharmacol. Exp. Ther. 250: 9-21) and were carried out at NIEHS, Research Triangle Park, N.C.
(§3) Plasma sample preparation: Blood (5 ml) was drawn through single draw Vacutainer® needles (21 Gauge) into open Vacutainer® blood collection tubes containing heparin. The tubes were gently inverted 2-3 times for mixing and immediately placed on ice. Blood was centrifuged (2,000 rpm for 10 minutes at 4° C.) no more than 30 minutes after collection, and the plasma was collected, frozen on dry ice and stored at −70° C.
Two assays were used to measure the effect of CCl4 on lipid hydroperoxides. A lipid hydroperoxide assay kit (Catalog No. 705002) from Cayman Chemical Company (Ann Arbor, Mich.) was used to measure hydroperoxides directly, utilizing the redox reaction with ferrous ion. Hydroperoxides were extracted into chloroform and reacted with ferrous ions to produce ferric ions. The resulting ferric ions were detected using thiocyanate ion as the chromogen. The hydroperoxide concentration was determined based on the absorption at 504 nm using a Beckman DU-7 spectrophotometer at room temperature. The experiments were performed at National Institute of Environmental Health Sciences (NIEHS), Research Triangle Park, N.C.

Male Fisher 344 rats [2] = assay: Plasma free plus esterified 8-iso-PGF2α by GC/MS; conditions: for Free plus esterified 8-iso-PGF2a (by GC-MS): plasma
Description: as §1
(§4) Indomethacin pretreatment: The indomethacin regimen used has been previously shown to inhibit COX activity in rats by 90% (dose of 5 mg/kg s.c. 24 hours, 12 hours, and 2 hours prior to the injection of CCl4) (Jackson, 1989, J. Pharmacol. Exp. Ther. 250: 9-21). An additional booster dose was injected 8 hours after the last injection of CCl4 for the measurements performed 16 hours after treatment with CCl4.
(§5) Meclofenamic acid pretreatment: Meclofenamic acid was injected at a dose of 5 mg/kg i.p. 12 h and 2 h prior to the injection of CCl4.
as §2, §3
Measurement of the sum of free plus esterified 8-iso-PGF2α in plasma were performed using an improved GC/MS-based analysis for the quantitation of this isoprostane in plasma. A detailed protocol for this extraction and quantitation has been published (Parker et al., 2001, Mol. Biotechnol. 18: 105-118). Measurements of the sum of free plus esterified 8-iso-PGF2α in plasma were performed at NIEHS, Research Triangle Park, N.C.

Male Fisher 344 rats [3] = assay: Plasma free 8-iso-PGF2α by GC/NICI-MS; conditions: for Free 8-iso-PGF2a (by GC-MS): plasma
Description: as §1, §4, §5, §2, §3
Two slightly different methods developed in two different laboratories were used to measure the effect of CCl4 on the plasma levels of free 8-iso-PGF2α, and the sum of free plus esterified 8-iso-PGF2α (also known as 8-epi-PGF2α and iPF2α-III and 15-F2t-IsoP). Free 8-iso-PGF2α concentrations in plasma were determined by gas chromatography/negative ion chemical ionization mass spectrometry (GC/NICI-MS) by the method of Morrow et al. (1999, Methods Enzymol. 300: 3-12). Briefly, [2H4] 8-iso-PGF2α internal standard was added to plasma and F2-isoprostanes were extracted with a C18 Sep-Pak® Cartridge (Waters Associates, Milford, Mass.). The extracted F2-isoprostanes were converted to pentafluorobenzyl ester and purified by TLC after which they were converted to a trimethylsilyl ether derivative and subsequently analyzed by GC-MS. The assay was developed and performed at Vanderbilt University, Nashville, Tenn.

Male Fisher 344 rats [4] = assay: Plasma protein-bound 3-nitrotyrosine (HPLC-EC)
Description: as §1, §2, §3
Determination of tyrosine products employed a method of sample preparation wherein tyrosine analogs were enzymatically hydrolyzed from protein without the need for sample extraction, concentration or derivatization (Henley et al., 1997, Analytical Biochem. 251: 187-195). High performance liquid chromatography was applied in conjunction with coulometric electrochemical array (HPLC-EC) detection to allow ultrasensitive determination of protein-bound 3-nitrotyrosine and 3,4-dihydroxyphenylalanine (3-hydroxytyrosine) as specific in situ biomarkers of protein exposure to reactive nitrating or oxidizing species (Henley et al., 1997, Analytical Biochem. 251: 187-195). Tyrosine and derivatives were analyzed simultaneously, with practical detection limits for tyrosine, 3-nitrotyrosine, and 3,4-Dopa being 10, 50 and 2 pmol respectively, in as little as 20 μL of sample. The measurements were conducted at the Oklahoma Medical Research Foundation (OMRF), Oklahoma City, Okla.

ClC(Cl)(Cl)Cl [CCl4, Carbon tetrachloride]
LOOH (by LPO assay kit) (Male Fisher 344 rats [1]; CCl4 120 mg/kg i.p., 2 h): 0.96 µM | LOOH (by LPO assay kit) (Male Fisher 344 rats [1]; CCl4 120 mg/kg i.p., 7 h): 1.20 µM | LOOH (by LPO assay kit) (Male Fisher 344 rats [1]; CCl4 120 mg/kg i.p., 16 h): 1.60 µM | LOOH (by LPO assay kit) (Male Fisher 344 rats [1]; CCl4 1200 mg/kg i.p., 2 h): 1.42 µM | LOOH (by LPO assay kit) (Male Fisher 344 rats [1]; CCl4 1200 mg/kg i.p., 7 h): 1.35 µM | LOOH (by LPO assay kit) (Male Fisher 344 rats [1]; CCl4 1200 mg/kg i.p., 16 h): 1.64 µM | increase of lipid hydroperoxides compared to controls (kit) (Male Fisher 344 rats [1]; high dose CCl4, 2 hour): 3 fold | Free plus esterified 8-iso-PGF2a (by GC-MS) (Male Fisher 344 rats [2]; CCl4 120 mg/kg i.p., 2 h): 3.07 ng/mL | Free plus esterified 8-iso-PGF2a (by GC-MS) (Male Fisher 344 rats [2]; CCl4 120 mg/kg i.p., 7 h): 1.79 ng/mL | Free plus esterified 8-iso-PGF2a (by GC-MS) (Male Fisher 344 rats [2]; CCl4 120 mg/kg i.p., 16 h): 0.93 ng/mL | Free plus esterified 8-iso-PGF2a (by GC-MS) (Male Fisher 344 rats [2]; CCl4 1200 mg/kg i.p., 2 h): 6.63 ng/mL | Free plus esterified 8-iso-PGF2a (by GC-MS) (Male Fisher 344 rats [2]; CCl4 1200 mg/kg i.p., 7 h): 4.39 ng/mL | Free plus esterified 8-iso-PGF2a (by GC-MS) (Male Fisher 344 rats [2]; CCl4 1200 mg/kg i.p., 16 h): 1.68 ng/mL | increase of free plus esterified plasma 8-iso-PGF2α (Male Fisher 344 rats [2]; high dose CCl4, 2 h): 15 fold | increase of free plus esterified plasma 8-iso-PGF2α (Male Fisher 344 rats [2]; high dose CCl4, 7 h): 10 fold | increase of free plus esterified plasma 8-iso-PGF2α (Male Fisher 344 rats [2]; high dose CCl4, 16 h): 4 fold | Free 8-iso-PGF2a (by GC-MS) (Male Fisher 344 rats [3]; CCl4 120 mg/kg i.p., 2 h): 0.48 ng/mL | Free 8-iso-PGF2a (by GC-MS) (Male Fisher 344 rats [3]; CCl4 120 mg/kg i.p., 7 h): 0.34 ng/mL | Free 8-iso-PGF2a (by GC-MS) (Male Fisher 344 rats [3]; CCl4 120 mg/kg i.p., 16 h): 0.27 ng/mL | Free 8-iso-PGF2a (by GC-MS) (Male Fisher 344 rats [3]; CCl4 1200 mg/kg i.p., 2 h): 1.80 ng/mL | Free 8-iso-PGF2a (by GC-MS) (Male Fisher 344 rats [3]; CCl4 1200 mg/kg i.p., 7 h): 1.27 ng/mL | Free 8-iso-PGF2a (by GC-MS) (Male Fisher 344 rats [3]; CCl4 1200 mg/kg i.p., 16 h): 0.74 ng/mL | increase of free plasma 8-iso-PGF2α (Male Fisher 344 rats [3]; high dose CCl4, 2 hours): 18 fold | increase of free plasma 8-iso-PGF2α (Male Fisher 344 rats [3]; high dose CCl4, 7 hours): 10 fold | increase of free plasma 8-iso-PGF2α (Male Fisher 344 rats [3]; high dose CCl4, 16 hours): 7 fold | 3-Nitrotyrosine, bound (Male Fisher 344 rats [4]; CCl4 120 mg/kg i.p., 2 h): 0.24 µM | 3-Nitrotyrosine, bound (Male Fisher 344 rats [4]; CCl4 120 mg/kg i.p., 7 h): 0.39 µM | 3-Nitrotyrosine, bound (Male Fisher 344 rats [4]; CCl4 120 mg/kg i.p., 16 h): 0.43 µM | 3-Nitrotyrosine, bound (Male Fisher 344 rats [4]; CCl4 1200 mg/kg i.p., 2 h): 0.26 µM | 3-Nitrotyrosine, bound (Male Fisher 344 rats [4]; CCl4 1200 mg/kg i.p., 7 h): 0.42 µM | 3-Nitrotyrosine, bound (Male Fisher 344 rats [4]; CCl4 1200 mg/kg i.p., 16 h): 0.38 µM
